# Results reported in ChEMBL document CHEMBL4665869, “New thiazolopyrimidine as anticancer agents: Synthesis, biological evaluation, DNA binding, molecular modeling and ADMET study” (Bioorg Med Chem Lett, 2020).
# How the values were obtained:
# HCT-116 = assay: Growth inhibition of human HCT-116 cells at 10 uM relative to control; type: functional; settings: read-out: GI
# SF-268 = assay: Growth inhibition of human SF-268 cells at 10 uM relative to control; type: functional; settings: read-out: GI
# Hs-578T = assay: Growth inhibition of human Hs-578T cells at 10 uM relative to control; type: functional; settings: read-out: GI
# ACHN = assay: Growth inhibition of human ACHN cells at 10 uM relative to control; type: functional; settings: read-out: GI
# SF-295 = assay: Growth inhibition of human SF-295 cells at 10 uM relative to control; type: functional; settings: read-out: GI
# M14 = assay: Growth inhibition of human M14 cells at 10 uM relative to control; type: functional; settings: read-out: GI
# MDA-MB-435 = assay: Growth inhibition of human MDA-MB-435 cells at 10 uM relative to control; type: functional; settings: read-out: GI
# HCC 2998 = assay: Growth inhibition of human HCC 2998 cells at 10 uM relative to control; type: functional; settings: read-out: GI
# UO-31 = assay: Growth inhibition of human UO-31 cells at 10 uM relative to control; type: functional; settings: read-out: GI
# DNA = assay: Displacement of methyl green from DNA (unknown origin) assessed as DNA intercalation after 24 hrs by colorimetric assay; type: nucleic-acid assay
# NCI-H522 = assay: Growth inhibition of human NCI-H522 cells at 10 uM relative to control; type: functional; settings: read-out: GI
# 786-0 = assay: Growth inhibition of human 786-0 cells at 10 uM relative to control; type: functional; settings: read-out: GI
# LOX IMVI = assay: Growth inhibition of human LOX IMVI cells at 10 uM relative to control; type: functional; settings: read-out: GI
# OVCAR-8 = assay: Growth inhibition of human OVCAR-8 cells at 10 uM relative to control; type: functional; settings: read-out: GI
# MDA-MB-468 = assay: Growth inhibition of human MDA-MB-468 cells at 10 uM relative to control; type: functional; settings: read-out: GI
# HCT-15 = assay: Growth inhibition of human HCT-15 cells at 10 uM relative to control; type: functional; settings: read-out: GI
# SK-MEL-5 = assay: Growth inhibition of human SK-MEL-5 cells at 10 uM relative to control; type: functional; settings: read-out: GI
# NCI-H460 = assay: Growth inhibition of human NCI-H460 cells at 10 uM relative to control; type: functional; settings: read-out: GI
# BT-549 = assay: Growth inhibition of human BT-549 cells at 10 uM relative to control; type: functional; settings: read-out: GI
# SNB-19 = assay: Growth inhibition of human SNB-19 cells at 10 uM relative to control; type: functional; settings: read-out: GI
# RXF 393 = assay: Growth inhibition of human RXF 393 cells at 10 uM relative to control; type: functional; settings: read-out: GI
# NCI-H226 = assay: Growth inhibition of human NCI-H226 cells at 10 uM relative to control; type: functional; settings: read-out: GI
# SR = assay: Growth inhibition of human SR cells at 10 uM relative to control; type: functional; settings: read-out: GI
# SF-539 = assay: Growth inhibition of human SF-539 cells at 10 uM relative to control; type: functional; settings: read-out: GI
# NCI-H23 = assay: Growth inhibition of human NCI-H23 cells at 10 uM relative to control; type: functional; settings: read-out: GI
# HOP-62 = assay: Growth inhibition of human HOP-62 cells at 10 uM relative to control; type: functional; settings: read-out: GI
# A498 = assay: Growth inhibition of human A498 cells at 10 uM relative to control; type: functional; settings: read-out: GI
# TK-10 = assay: Growth inhibition of human TK-10 cells at 10 uM relative to control; type: functional; settings: read-out: GI
# HL-60(TB) = assay: Growth inhibition of human HL-60(TB) cells at 10 uM relative to control; type: functional; settings: read-out: GI
compound,measurement,setting,value
CC1=CN2C(=NC(/C=C/c3ccc(Cl)cc3)=CC2c2ccc(Cl)cc2)S1 (centres undefined),inhibition of growth at 10 µM,HCT-116,< 10%
same,inhibition of growth at 10 µM,SF-268,< 10%
same,inhibition of growth at 10 µM,Hs-578T,< 10%
same,inhibition of growth at 10 µM,ACHN,< 10%
same,inhibition of growth at 10 µM,SF-295,< 10%
same,inhibition of growth at 10 µM,M14,< 10%
same,inhibition of growth at 10 µM,MDA-MB-435,< 10%
same,inhibition of growth at 10 µM,HCC 2998,< 10%
same,inhibition of growth at 10 µM,UO-31,< 10%
same,IC50,DNA,45.18 µg/mL
same,inhibition of growth at 10 µM,NCI-H522,< 10%
same,inhibition of growth at 10 µM,786-0,< 10%
same,inhibition of growth at 10 µM,LOX IMVI,< 10%
same,inhibition of growth at 10 µM,OVCAR-8,< 10%
same,inhibition of growth at 10 µM,MDA-MB-468,< 10%
same,inhibition of growth at 10 µM,HCT-15,< 10%
same,inhibition of growth at 10 µM,SK-MEL-5,< 10%
same,inhibition of growth at 10 µM,NCI-H460,< 10%
same,inhibition of growth at 10 µM,BT-549,< 10%
same,inhibition of growth at 10 µM,SNB-19,< 10%
same,inhibition of growth at 10 µM,RXF 393,< 10%
same,inhibition of growth at 10 µM,NCI-H226,< 10%
same,inhibition of growth at 10 µM,SR,< 10%
same,inhibition of growth at 10 µM,SF-539,< 10%
same,inhibition of growth at 10 µM,NCI-H23,< 10%
same,inhibition of growth at 10 µM,HOP-62,< 10%
same,inhibition of growth at 10 µM,A498,12.3%
same,inhibition of growth at 10 µM,TK-10,< 10%
same,inhibition of growth at 10 µM,HL-60(TB),< 10%
